Data published in ChEMBL document CHEMBL4266018, “Discovery and Characterization of AZD6738, a Potent Inhibitor of Ataxia Telangiectasia Mutated and Rad3 Related (ATR) Kinase with Application as an Anticancer Agent” (J Med Chem, 2018).

What was measured:
[1] = Apparent permeability across apical to basolateral side in human Caco2 cells at 10 uM at pH 7.4; type: ADME, cell-based; conditions: Caco-2, pH 7.4
Rattus norvegicus [2] = assay: Dose normalized AUC in Han-Wistar rat at 4 umol/kg, po; type: ADME, organism-based; conditions: in vivo
[3] = Plasma concentration in Swiss nu/nu mouse xenografted with human LoVo cells at 50 mg/kg, po qd after 8 hrs; type: ADME, organism-based
[4] = Plasma concentration in Swiss nu/nu mouse xenografted with human LoVo cells at 25 mg/kg, po bid after 8 hrs; type: ADME, organism-based
physchem = conditions: octanol/phosphate buffer, pH 7.4
Rattus norvegicus [5] = assay: Dose normalized AUC in Han-Wistar rat at 10 umol/kg, po; type: ADME, organism-based; conditions: in vivo
in vitro [6] = conditions: rat, hepatocytes
in vitro [7] = conditions: human, hepatocytes
[8] = Apparent permeability across apical to basolateral side in human Caco2 cells at 10 uM at pH 6.5; type: ADME, cell-based; conditions: Caco-2, pH 6.5
[9] = Plasma concentration in Swiss nu/nu mouse xenografted with human LoVo cells at 25 mg/kg, po qd after 8 hrs; type: ADME, organism-based
[10] = Plasma concentration in Swiss nu/nu mouse xenografted with human LoVo cells at 12.5 mg/kg, po bid after 8 hrs; type: ADME, organism-based
[11] = Plasma concentration in Swiss nu/nu mouse xenografted with human LoVo cells at 75 mg/kg, po qd after 8 hrs; type: ADME, organism-based
Rattus norvegicus [12] = assay: Clearance in Han Wistar rat at 8.55 umol/kg, iv or 20.3 umol/kg, po relative to liver blood flow; type: ADME, organism-based; conditions: in vivo
[13] = Volume of distribution at steady state in Han Wistar rat at 8.55 umol/kg, iv or 20.3 umol/kg, po; type: ADME, organism-based; conditions: in vivo, read-out: Vdss
[14] = Oral bioavailability in Han Wistar rat at 20.3 umol/kg; type: ADME, organism-based; conditions: in vivo
Canis familiaris = assay: Clearance in Beagle dog at 10.5 umol/kg, iv or […], po relative to liver blood flow; type: ADME, organism-based, Canis lupus familiaris; conditions: in vivo
[15] = Volume of distribution at steady state in Beagle dog at 10.5 umol/kg, iv or […], po; type: ADME, organism-based, Canis lupus familiaris; conditions: in vivo, read-out: Vdss
[16] = Oral bioavailability in Beagle dog at […]; type: ADME, organism-based, Canis lupus familiaris; conditions: in vivo
[17] = Intrinsic clearance in human hepatocytes assessed as per million cells at 1 uM; type: ADME, cell-based, Hepatocyte; conditions: read-out: CLH
[18] = Elimination half life in human; type: ADME, organism-based; conditions: in vivo, read-out: beta t1/2 (converted)

**Q.** For C[C@@H]1COCCN1c1cc(C2(S(C)(=O)=O)CC2)nc(-c2cccc3[nH]ccc23)n1, which Papp A→B at 10 µM [1] is on record?
**A.** 37 ×10⁻⁶ cm/s

**Q.** And the AUC/dose (Rattus norvegicus [2])?
**A.** 1 µM·h

**Q.** And the concentration at 8 h [3]?
**A.** 3500 nM

**Q.** And the concentration at 8 h [4]?
**A.** 1800 nM

**Q.** And the logD at 3 h, 10 µM (physchem)?
**A.** 2.5

**Q.** With CS(=O)(=O)C1(c2cc(N3CCOCC3)nc(-c3cccc4[nH]ccc34)n2)CC1 as the compound, how does the logD at 3 h, 10 µM (physchem) read?
**A.** 2.3

**Q.** For CS(=O)(=O)C1(c2cc(N3CCOCC3)nc(-c3cccc4[nH]cnc34)n2)CC1, which logD at 3 h, 10 µM (physchem) is on record?
**A.** 2.2

**Q.** For CNC(=O)c1cc(-c2nc(N3CCOCC3)cc(C3(S(C)(=O)=O)CC3)n2)c2cc[nH]c2c1, which logD at 3 h, 10 µM (physchem) is on record?
**A.** 1.6

**Q.** For C[C@@H]1COCCN1c1cc(C2([S@@](C)(=N)=O)CC2)nc(-c2ccnc3[nH]ccc23)n1, which logD at 3 h, 10 µM (physchem) is on record?
**A.** 1.8

**Q.** For CNc1nc2ccccc2n1-c1nc(N2CCOC[C@H]2C)cc(C2([S@](C)(=N)=O)CC2)n1, which Papp A→B at 10 µM [1] is on record?
**A.** 8 ×10⁻⁶ cm/s

**Q.** What about the AUC/dose (Rattus norvegicus [5]) of the same compound?
**A.** 0.35 µM·h

**Q.** What about the concentration at 8 h [3] of the same compound?
**A.** 940 nM

**Q.** And the logD at 3 h, 10 µM (physchem)?
**A.** 2.1

**Q.** And the hepatocyte CLint at 1 µM (in vitro [6])?
**A.** 11 µL/min/1e6 cells

**Q.** What about the hepatocyte CLint at 1 µM (in vitro [7]) of the same compound?
**A.** < 3 µL/min/1e6 cells

**Q.** With C[C@@H]1COCCN1c1cc(C2(S(C)(=N)=O)CC2)nc(-c2cncc3[nH]ccc23)n1 (some centres undefined) as the compound, how does the logD at 3 h, 10 µM (physchem) read?
**A.** 1.4

**Q.** For CC(=O)Nc1nc2ccccc2n1-c1nc(N2CCOC[C@H]2C)cc(C2(S(C)(=O)=O)CC2)n1, which logD at 3 h, 10 µM (physchem) is on record?
**A.** 1.8

**Q.** For CS(=O)(=O)C1(c2cc(N3CCOCC3)nc(-c3cncc4[nH]ccc34)n2)CC1, which logD at 3 h, 10 µM (physchem) is on record?
**A.** 1.8

**Q.** For CS(=O)(=O)C1(c2cc(N3CCOCC3)nc(-c3ccnc4[nH]ccc34)n2)CC1, which logD at 3 h, 10 µM (physchem) is on record?
**A.** 2.2

**Q.** What does the source list for C[C@@H]1COCCN1c1cc(C2(S(C)(=O)=O)CC2)nc(-c2cncc3[nH]ccc23)n1?
**A.** Papp A→B at 10 µM [8]: 8 ×10⁻⁶ cm/s; AUC/dose (Rattus norvegicus [2]): 0.08 µM·h; concentration at 8 h [9]: 780 nM; concentration at 8 h [10]: 220 nM; logD at 3 h, 10 µM (physchem): 2.1; hepatocyte CLint at 1 µM (in vitro [6]): 10 µL/min/1e6 cells; hepatocyte CLint at 1 µM (in vitro [7]): < 3 µL/min/1e6 cells

**Q.** For CNc1nc2ccccc2n1-c1nc(N2CCOC[C@H]2C)cc(C2([S@@](C)(=N)=O)CC2)n1, which logD at 3 h, 10 µM (physchem) is on record?
**A.** 2.1

**Q.** For C[C@@H]1COCCN1c1cc(C2([S@+](C)[O-])CC2)nc(-c2ccnc3[nH]ccc23)n1, which logD at 3 h, 10 µM (physchem) is on record?
**A.** 2.5

**Q.** With CS(=O)(=O)C1(c2cc(N3CC4CCC(C3)O4)nc(-c3cncc4[nH]ccc34)n2)CC1 as the compound, how does the logD at 3 h, 10 µM (physchem) read?
**A.** 2.2

**Q.** Which logD at 3 h, 10 µM (physchem) does the source give for C[C@@H]1COCCN1c1cc(C2(S(C)(=O)=O)CC2)nc(-c2ccnc3[nH]ccc23)n1 here?
**A.** 2.6

**Q.** For CS(=O)(=O)C1(c2cc(C3=CCOCC3)nc(-c3cccc4[nH]ccc34)n2)CC1, which logD at 3 h, 10 µM (physchem) is on record?
**A.** 2.9

**Q.** With C[C@@H]1COCCN1c1cc(C2(S(C)(=O)=O)CC2)nc(-n2c(N)nc3ccccc32)n1 as the compound, how does the logD at 3 h, 10 µM (physchem) read?
**A.** 2.5

**Q.** With C[C@H]1COCCN1c1cc(C2(S(C)(=O)=O)CC2)nc(-c2cncc3[nH]ccc23)n1 as the compound, how does the logD at 3 h, 10 µM (physchem) read?
**A.** 2.2

**Q.** For CNc1nc2ccccc2n1-c1nc(N2CCOC[C@H]2C)cc(C2(S(C)(=O)=O)CC2)n1, which Papp A→B at 10 µM [1] is on record?
**A.** 53 ×10⁻⁶ cm/s

**Q.** What about the AUC/dose (Rattus norvegicus [5]) of the same compound?
**A.** 0.4 µM·h

**Q.** And the concentration at 8 h [4]?
**A.** 8300 nM

**Q.** And the logD at 3 h, 10 µM (physchem)?
**A.** 2.8

**Q.** And the hepatocyte CLint at 1 µM (in vitro [6])?
**A.** 25 µL/min/1e6 cells

**Q.** What about the hepatocyte CLint at 1 µM (in vitro [7]) of the same compound?
**A.** < 3 µL/min/1e6 cells

**Q.** With CS(=O)(=O)C1(c2cc(N3CCOCC3)nc(-n3c(N)nc4ccccc43)n2)CC1 as the compound, how does the logD at 3 h, 10 µM (physchem) read?
**A.** 2.2

**Q.** Which logD at 3 h, 10 µM (physchem) does the source give for CS(=O)(=O)C1(c2cc(N3C4CCC3COC4)nc(-c3cncc4[nH]ccc34)n2)CC1 here?
**A.** 2.1

**Q.** Which logD at 3 h, 10 µM (physchem) does the source give for C[C@@H]1COCCN1c1cc(C2([S@@+](C)[O-])CC2)nc(-c2ccnc3[nH]ccc23)n1 here?
**A.** 2.5

**Q.** For C[C@@H]1COCCN1c1cc(C2([S@](C)(=N)=O)CC2)nc(-c2cc[nH]c3nccc2-3)n1 [CERALASERTIB], which Papp A→B at 10 µM [8] is on record?
**A.** 6.8 ×10⁻⁶ cm/s

**Q.** And the Papp A→B at 10 µM [1]?
**A.** 12 ×10⁻⁶ cm/s

**Q.** What about the AUC/dose (Rattus norvegicus [5]) of the same compound?
**A.** 0.8 µM·h

**Q.** And the concentration at 8 h [3]?
**A.** 2200 nM

**Q.** And the concentration at 8 h [4]?
**A.** 740 nM

**Q.** And the concentration at 8 h [11]?
**A.** 2600 nM

**Q.** And the CL (Rattus norvegicus [12])?
**A.** 22%

**Q.** What about the Vd [13] of the same compound?
**A.** 3.1 L/kg

**Q.** What about the bioavailability [14] of the same compound?
**A.** 67%

**Q.** What about the CL (Canis familiaris) of the same compound?
**A.** 10%

**Q.** What about the Vd [15] of the same compound?
**A.** 1 L/kg

**Q.** What about the bioavailability [16] of the same compound?
**A.** 100%

**Q.** And the hepatocyte CLint at 1 µM [17]?
**A.** 2 µL/min/1e6 cells

**Q.** What about the half-life [18] of the same compound?
**A.** 11 h

**Q.** And the logD at 3 h, 10 µM (physchem)?
**A.** 1.9

**Q.** What about the hepatocyte CLint at 1 µM (in vitro [6]) of the same compound?
**A.** < 3.5 µL/min/1e6 cells

**Q.** What about the hepatocyte CLint at 1 µM (in vitro [7]) of the same compound?
**A.** < 3 µL/min/1e6 cells
